# From the supplement of paper PMC11208160
# Test: recombinant UMI read abundance after kanamycin selection (control-corrected) (log10(CPM+1)); higher = more efficient recombination; extreme values may be limits of the assay; sequences stand for … in AGTGCAGAGAAAATCGGCCAGTTTTCTCTGCCTGCAGTCCGCATGCCGTGGGACCCCTTGGGTTCTAACCTGTTGCCTAGATTTATGCAGCGGACTGCCTTTCTCCCAAAGTGATAAACCGG…AGGTTGGTTTCACT; site = the 11-nt donor
# How it was run: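 Values are reported as log10(CPM+1), obtained by converting sequencing counts to CPM, averaging replicates and scaling by control-derived factors. The counts came from recombinant UMIs amplified by PCR across the donor–target junction. These UMIs came from a pooled Escherichia coli screen of donor and donor-binding-loop pairs for the IS621 bridge recombinase, plated with IPTG (0.07 mM) plus kanamycin or left unselected, in two replicates each.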
# 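Also: IS621 bridge recombinase in Escherichia coli cells against a fixed T5 target plasmid.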
sequence,measurement,value
CGGTAGACATGGACCGGTTTTCCCGGTAATCCGTATTTGCA (site CGGTAGACTTG),recombinant UMI read abundance (log10),2.84
CGGTAGCCATGGACCGGTTTTCCCGGTAATCCGTATTTGCT (site CGGTAGCCTAG),recombinant UMI read abundance (log10),0.793
CGGTATCCATGGACCGGTTTTCCCGGTAATCCGTATTTGTT (site CGGAATCCTAA),recombinant UMI read abundance (log10),0
CGGTATCCATGGACCGGTTTTCCCGGTAATCCGTATTTGTT (site CGGCATCCTAA),recombinant UMI read abundance (log10),0.493
CGGTATCCATGGACCGGTTTTCCCGGTAATCCGTATTTGTT (site CGGGATCCTAA),recombinant UMI read abundance (log10),0.0113
CGGTATCCATGGACCGGTTTTCCCGGTAATCCGTATTTGTT (site CGGTATCCTAA),recombinant UMI read abundance (log10),0.562
CGGTCGTCATGGACCGGTTTTCCCGGTAATCCGTATTTGCA (site CGGTCGTCTTG),recombinant UMI read abundance (log10),1.71
CGGTGGCCATGGACCGGTTTTCCCGGTAATCCGTATTTGGG (site CGGTGGCCTCC),recombinant UMI read abundance (log10),0.0062
CGGTTATCATGGACCGGTTTTCCCGGTAATCCGTATTTGCT (site CGATCATCTAG),recombinant UMI read abundance (log10),0
CGGTTATCATGGACCGGTTTTCCCGGTAATCCGTATTTGCT (site CGGTTATCTAG),recombinant UMI read abundance (log10),2.65
CGGTTTACATGGACCGGTTTTCCCGGTAATCCGTATTTGCT (site CAGTTTACTAG),recombinant UMI read abundance (log10),0
CGGTTTACATGGACCGGTTTTCCCGGTAATCCGTATTTGCT (site CCGTTTACTAG),recombinant UMI read abundance (log10),0.391
CGGTTTACATGGACCGGTTTTCCCGGTAATCCGTATTTGCT (site CGGTTTACTAG),recombinant UMI read abundance (log10),1.33
CGGTTTACATGGACCGGTTTTCCCGGTAATCCGTATTTGCT (site CTGTTTACTAG),recombinant UMI read abundance (log10),1.21
CGTAAAGCATGGACCGGTTTTCCCGGTAATCCGTATTTGAT (site CATAAAGCTAT),recombinant UMI read abundance (log10),0.355
CGTAAAGCATGGACCGGTTTTCCCGGTAATCCGTATTTGAT (site CCTAAAGCTAT),recombinant UMI read abundance (log10),0
CGTAAAGCATGGACCGGTTTTCCCGGTAATCCGTATTTGAT (site CGTAAAGCTAT),recombinant UMI read abundance (log10),2.44
CGTAAAGCATGGACCGGTTTTCCCGGTAATCCGTATTTGAT (site CTTAAAGCTAT),recombinant UMI read abundance (log10),0
CGTAACACATGGACCGGTTTTCCCGGTAATCCGTATTTGCC (site CGTAACACTGG),recombinant UMI read abundance (log10),2.01
CGTAAGACATGGACCGGTTTTCCCGGTAATCCGTATTTGAG (site CGTAAGACTCT),recombinant UMI read abundance (log10),1.73
CGTAAGACATGGACCGGTTTTCCCGGTAATCCGTATTTGAG (site CGTCAGACTCT),recombinant UMI read abundance (log10),0.0684
CGTAAGACATGGACCGGTTTTCCCGGTAATCCGTATTTGAG (site CGTGAGACTCT),recombinant UMI read abundance (log10),0.0574
CGTAAGACATGGACCGGTTTTCCCGGTAATCCGTATTTGAG (site CGTTAGACTCT),recombinant UMI read abundance (log10),0.396
CGTACATCATGGACCGGTTTTCCCGGTAATCCGTATTTGCG (site CGTACATCTCG),recombinant UMI read abundance (log10),1.29
CGTACGTCATGGACCGGTTTTCCCGGTAATCCGTATTTGTT (site AGTACGTCTAA),recombinant UMI read abundance (log10),0.0741
CGTACGTCATGGACCGGTTTTCCCGGTAATCCGTATTTGTT (site CGTACGTCTAA),recombinant UMI read abundance (log10),0.728
CGTACGTCATGGACCGGTTTTCCCGGTAATCCGTATTTGTT (site GGTACGTCTAA),recombinant UMI read abundance (log10),0.0115
CGTACGTCATGGACCGGTTTTCCCGGTAATCCGTATTTGTT (site TGTACGTCTAA),recombinant UMI read abundance (log10),0.00974
CGTACTCCATGGACCGGTTTTCCCGGTAATCCGTATTTGCA (site CGTACTCCTTG),recombinant UMI read abundance (log10),0.892
CGTAGAACATGGACCGGTTTTCCCGGTAATCCGTATTTGTT (site CGTAGAACTAA),recombinant UMI read abundance (log10),0.685
CGTAGAACATGGACCGGTTTTCCCGGTAATCCGTATTTGTT (site CGTCGAACTAA),recombinant UMI read abundance (log10),0.018
CGTAGAACATGGACCGGTTTTCCCGGTAATCCGTATTTGTT (site CGTGGAACTAA),recombinant UMI read abundance (log10),0.00623
CGTAGAACATGGACCGGTTTTCCCGGTAATCCGTATTTGTT (site CGTTGAACTAA),recombinant UMI read abundance (log10),0.0104
CGTAGTGCATGGACCGGTTTTCCCGGTAATCCGTATTTGTT (site CGTAGTGCTAA),recombinant UMI read abundance (log10),0.84
CGTCCAGCATGGACCGGTTTTCCCGGTAATCCGTATTTGCT (site CGTCCAGCTAG),recombinant UMI read abundance (log10),0.438
CGTCGAACATGGACCGGTTTTCCCGGTAATCCGTATTTGAA (site CGTCGAACTTT),recombinant UMI read abundance (log10),0.822
CGTCGAACATGGACCGGTTTTCCCGGTAATCCGTATTTGTT (site CGTAGAACTAA),recombinant UMI read abundance (log10),0
CGTCGAACATGGACCGGTTTTCCCGGTAATCCGTATTTGTT (site CGTCGAACTAA),recombinant UMI read abundance (log10),0
CGTCGAACATGGACCGGTTTTCCCGGTAATCCGTATTTGTT (site CGTGGAACTAA),recombinant UMI read abundance (log10),0
CGTCGAACATGGACCGGTTTTCCCGGTAATCCGTATTTGTT (site CGTTGAACTAA),recombinant UMI read abundance (log10),0.00437
CGTCTATCATGGACCGGTTTTCCCGGTAATCCGTATTTGAT (site CGTCTATCTAT),recombinant UMI read abundance (log10),0
CGTCTCTCATGGACCGGTTTTCCCGGTAATCCGTATTTGGG (site CGTCTCTCTCC),recombinant UMI read abundance (log10),0.0222
CGTCTCTCATGGACCGGTTTTCCCGGTAATCCGTATTTGTA (site CATCTCTCTTA),recombinant UMI read abundance (log10),1.13
CGTCTCTCATGGACCGGTTTTCCCGGTAATCCGTATTTGTA (site CCTCTCTCTTA),recombinant UMI read abundance (log10),1.04
CGTCTCTCATGGACCGGTTTTCCCGGTAATCCGTATTTGTA (site CGTCTCTCTTA),recombinant UMI read abundance (log10),2.64
CGTCTCTCATGGACCGGTTTTCCCGGTAATCCGTATTTGTA (site CTTCTCTCTTA),recombinant UMI read abundance (log10),1.33
CGTCTGTCATGGACCGGTTTTCCCGGTAATCCGTATTTGAC (site CGTCTGTCTGT),recombinant UMI read abundance (log10),0
CGTGCAACATGGACCGGTTTTCCCGGTAATCCGTATTTGTT (site CGTGAAACTAA),recombinant UMI read abundance (log10),0
CGTGCAACATGGACCGGTTTTCCCGGTAATCCGTATTTGTT (site CGTGCAACTAA),recombinant UMI read abundance (log10),0.0114
CGTGCAACATGGACCGGTTTTCCCGGTAATCCGTATTTGTT (site CGTGGAACTAA),recombinant UMI read abundance (log10),0.018
CGTGCAACATGGACCGGTTTTCCCGGTAATCCGTATTTGTT (site CGTGTAACTAA),recombinant UMI read abundance (log10),0.00375
CGTGGAACATGGACCGGTTTTCCCGGTAATCCGTATTTGAT (site CGTGGAACTAA),recombinant UMI read abundance (log10),0.00774
CGTGGAACATGGACCGGTTTTCCCGGTAATCCGTATTTGAT (site CGTGGAACTAC),recombinant UMI read abundance (log10),0
CGTGGAACATGGACCGGTTTTCCCGGTAATCCGTATTTGAT (site CGTGGAACTAG),recombinant UMI read abundance (log10),0
CGTGGAACATGGACCGGTTTTCCCGGTAATCCGTATTTGAT (site CGTGGAACTAT),recombinant UMI read abundance (log10),2.14
CGTGGAACATGGACCGGTTTTCCCGGTAATCCGTATTTGTG (site CGTGGAACTAA),recombinant UMI read abundance (log10),0.0173
CGTGGAACATGGACCGGTTTTCCCGGTAATCCGTATTTGTG (site CGTGGAACTCA),recombinant UMI read abundance (log10),1.16
CGTGGAACATGGACCGGTTTTCCCGGTAATCCGTATTTGTG (site CGTGGAACTGA),recombinant UMI read abundance (log10),0
CGTGGAACATGGACCGGTTTTCCCGGTAATCCGTATTTGTG (site CGTGGAACTTA),recombinant UMI read abundance (log10),1.61
CGTGGAACATGGACCGGTTTTCCCGGTAATCCGTATTTGTT (site AGTGGAACTAA),recombinant UMI read abundance (log10),0.101
CGTGGAACATGGACCGGTTTTCCCGGTAATCCGTATTTGTT (site CATGGAACTAA),recombinant UMI read abundance (log10),0.0194
CGTGGAACATGGACCGGTTTTCCCGGTAATCCGTATTTGTT (site CCTGGAACTAA),recombinant UMI read abundance (log10),0.0032
CGTGGAACATGGACCGGTTTTCCCGGTAATCCGTATTTGTT (site CGAGGAACTAA),recombinant UMI read abundance (log10),1.63
CGTGGAACATGGACCGGTTTTCCCGGTAATCCGTATTTGTT (site CGCGGAACTAA),recombinant UMI read abundance (log10),0.501
CGTGGAACATGGACCGGTTTTCCCGGTAATCCGTATTTGTT (site CGGGGAACTAA),recombinant UMI read abundance (log10),0.00685
CGTGGAACATGGACCGGTTTTCCCGGTAATCCGTATTTGTT (site CGTAGAACTAA),recombinant UMI read abundance (log10),1.15
CGTGGAACATGGACCGGTTTTCCCGGTAATCCGTATTTGTT (site CGTCGAACTAA),recombinant UMI read abundance (log10),0.0185
CGTGGAACATGGACCGGTTTTCCCGGTAATCCGTATTTGTT (site CGTGAAACTAA),recombinant UMI read abundance (log10),0
